{
  "source": "patent US4218443A",
  "about": "“Polyether ionophores as antiobesity and hypotriglyceridemic agents” (Hoffmann-La Roche Inc., priority 1979, dated 1980)",
  "key": {"pancreatic lipase": {"molecular_target": "T1, pancreatic lipase (Rattus norvegicus, UniProt P27657)", "T1 construct": "stimulated to release pancreatic proteins by addition of 10^-5 M carbachol; from tissue; host or cells: pancreatic lobules of fasted Charles River female rats; released pancreatic juice, centrifuged", "T1 sequence (P27657 17-465)": "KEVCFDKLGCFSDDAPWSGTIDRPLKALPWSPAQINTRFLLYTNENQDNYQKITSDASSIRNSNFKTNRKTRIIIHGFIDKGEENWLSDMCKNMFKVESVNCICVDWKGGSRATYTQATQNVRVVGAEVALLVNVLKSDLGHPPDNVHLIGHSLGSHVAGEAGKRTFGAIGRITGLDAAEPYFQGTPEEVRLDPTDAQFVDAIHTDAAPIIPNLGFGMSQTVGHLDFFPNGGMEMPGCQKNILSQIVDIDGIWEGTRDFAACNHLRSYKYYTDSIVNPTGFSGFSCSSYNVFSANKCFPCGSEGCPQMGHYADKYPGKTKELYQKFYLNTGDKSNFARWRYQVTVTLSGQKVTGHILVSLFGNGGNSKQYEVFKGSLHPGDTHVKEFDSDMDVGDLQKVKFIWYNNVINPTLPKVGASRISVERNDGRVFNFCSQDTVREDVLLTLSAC", "experiment": "In vitro pancreatic lipase screen ([14C]-triolein assay)", "assay_type": "biochemical", "conditions": "read-out: Pancreatic Lipase Activity I50", "description": "The method for assaying pacreatic lipase in vitro using [^14 C]-triolein was based on the method of Garfinkel and Schotz for lipoprotein lipase, [A. S. Garfinkel and M. C. Schotz (1972). […] Glycerol tri[1-^14 C]oleate (32 mM) was emulsified in 0.2 M Tris-HCl pH 8 containing 0.15 M NaCl, bovine serum albumin (15 mg/ml) and sodium taurocholate (1.4 mM) by sonication for three, one min intervals at 80 watts. Final assay volume was 1.0 ml. The reaction was initiated by the addition of enzyme and was allowed to proceed for 10 min. The reaction was linear for up to 20 min. The liberated free fatty acids were extracted into 0.1 M KOH and quantitated in a liquid scintillation counter using 2,5-bis-2-(5-tertbutylbenzoxazolyl)-tniophene (BBOT) scintillation fluid (Yorktown Research, South Hackensack, N.J.).\nIonophores were added to the above assay as solutions in either 90% ethanol or water, pH 8; 90% ethanol had no effect on the enzyme activity assayed by either method."}, "[1]": {"tested_on": "meal-fed Charles River rats", "experiment": "Food consumption and serum parameters in meal-fed rats (in vivo fatty acid synthesis experiments)", "set-up": "species or system Charles River rat", "conditions": "sodium salt, mean ± SE", "description": "In the following examples, female rats (Charles River CD strain, 180-200 g) were housed individually in wire bottom cages in a temperature (22°) and light (12 hr light and 12 hr dark) regulated room. They had free access to Purina Rodent Chow and water.\nFaster enzymatic procedure for serum triglycerides, Clinical Chemistry, 21: 1983-1985], cholesterol, [C. C. Allain, L. Poon, S. G. Chan, W. Richmond and P. Fu (1974). Enzymatic determination of total serum cholesterol, Clinical Chemistry, 20: 470-475] and glucose, [R. Konig, H. Dauwalder and R. Richterich (1971). Vergleichende Bestimmunogen der Uringlucosekonzentration mit der Polarimetrie und einer enzymatischen Methode (Hexokinase/Glucose-6-Phosphat-Dehydrogenase), Schweiz. Med. Wschr., 101: 860-866] by enzymatic procedures."}, "human pancreatic lipase": {"molecular_target": "T2, human pancreatic lipase (Homo sapiens, UniProt P16233)", "T2 construct": "Human pancreatic juice was obtained from a patient with acute pancreatitis; from tissue; host or cells: human pancreatic juice from the cannulated duct of a patient with acute pancreatitis; gift of Dr. George Nardi, Massachusetts General Hospital", "T2 sequence (P16233 17-465)": "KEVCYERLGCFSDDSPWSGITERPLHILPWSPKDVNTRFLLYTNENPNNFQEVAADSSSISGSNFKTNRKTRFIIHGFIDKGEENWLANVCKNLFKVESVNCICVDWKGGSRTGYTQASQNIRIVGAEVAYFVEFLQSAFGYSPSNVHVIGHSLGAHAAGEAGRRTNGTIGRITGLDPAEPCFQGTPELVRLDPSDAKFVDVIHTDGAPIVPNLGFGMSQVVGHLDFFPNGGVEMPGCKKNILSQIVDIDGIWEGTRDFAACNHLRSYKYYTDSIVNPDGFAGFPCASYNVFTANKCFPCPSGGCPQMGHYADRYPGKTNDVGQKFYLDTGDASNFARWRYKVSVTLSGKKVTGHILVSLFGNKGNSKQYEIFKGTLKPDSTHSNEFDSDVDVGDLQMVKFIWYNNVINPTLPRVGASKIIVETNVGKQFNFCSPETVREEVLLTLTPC", "experiment": "In vitro titrimetric (Radiometer pH-stat) pancreatic lipase assay, Dixon plots", "assay_type": "biochemical", "conditions": "Dixon plots"}},
  "data": [
    {"smiles": "CC[C@@H](C(=O)[C@@H](C)[C@@H](O)[C@H](C)CCc1c([N+](=O)[O-])cc(C)c(O)c1[N+](=O)[O-])[C@H]1O[C@](CC)([C@H]2CC[C@](O)(CC)[C@H](C)O2)C[C@@H]1C", "note": "[Dinitrodescarboxylasalocid]", "values": [
      {"measurement": "IC50", "setting": "pancreatic lipase", "result": 400, "unit": "µM"},
      {"measurement": "Food Consumption", "setting": "[1]; 60 mg/kg i.p.", "result": "15.7 ± 0.4", "unit": "g"},
      {"measurement": "Food Consumption", "setting": "[1]; Experiment 1, 240 mg/kg p.o.", "result": "11.0 ± 0.8", "unit": "g"},
      {"measurement": "Serum Cholesterol", "setting": "[1]; Experiment 1, 240 mg/kg p.o.", "result": "85 ± 7", "unit": "mg/100 ml"},
      {"measurement": "Serum Glucose", "setting": "[1]; Experiment 1, 240 mg/kg p.o.", "result": "194 ± 9", "unit": "mg/100 ml"},
      {"measurement": "Serum Triglycerides", "setting": "[1]; Experiment 1, 240 mg/kg p.o.", "result": "42 ± 5", "unit": "mg/100 ml"},
      {"measurement": "Food Consumption", "setting": "[1]; Experiment 2, 60 mg/kg p.o.", "result": "8.8 ± 1.0", "unit": "g"},
      {"measurement": "Serum Cholesterol", "setting": "[1]; Experiment 2, 60 mg/kg p.o.", "result": "84 ± 3", "unit": "mg/100 ml"},
      {"measurement": "Serum Glucose", "setting": "[1]; Experiment 2, 60 mg/kg p.o.", "result": "165 ± 6", "unit": "mg/100 ml"},
      {"measurement": "Serum Triglycerides", "setting": "[1]; Experiment 2, 60 mg/kg p.o.", "result": "40 ± 4", "unit": "mg/100 ml"},
      {"measurement": "Food Consumption", "setting": "[1]; Experiment 2, 120 mg/kg p.o.", "result": "10.7 ± 1.0", "unit": "g"},
      {"measurement": "Serum Cholesterol", "setting": "[1]; Experiment 2, 120 mg/kg p.o.", "result": "82 ± 6", "unit": "mg/100 ml"},
      {"measurement": "Serum Glucose", "setting": "[1]; Experiment 2, 120 mg/kg p.o.", "result": "168 ± 7", "unit": "mg/100 ml"},
      {"measurement": "Serum Triglycerides", "setting": "[1]; Experiment 2, 120 mg/kg p.o.", "result": "31 ± 2", "unit": "mg/100 ml"},
      {"measurement": "Food Consumption", "setting": "[1]; Experiment 2, 240 mg/kg p.o.", "result": "9.4 ± 1.1", "unit": "g"},
      {"measurement": "Serum Cholesterol", "setting": "[1]; Experiment 2, 240 mg/kg p.o.", "result": "76 ± 7", "unit": "mg/100 ml"},
      {"measurement": "Serum Glucose", "setting": "[1]; Experiment 2, 240 mg/kg p.o.", "result": 183, "unit": "mg/100 ml"},
      {"measurement": "Serum Triglycerides", "setting": "[1]; Experiment 2, 240 mg/kg p.o.", "result": "31 ± 5", "unit": "mg/100 ml"},
      {"measurement": "type of inhibition from Dixon plots", "setting": "human pancreatic lipase", "result": "suggested competitive inhibition"},
      {"measurement": "Ki", "setting": "human pancreatic lipase; in vitro Radiometer assay, read-out: inhibition constant (Ki)", "result": 20, "unit": "µM"}
    ]}
  ]
}
